Assay results from patent US20230126310A1 (priority 2020, published 2023).
Counter-ions that a name gives are not always drawn. Like-named read-outs stand apart in the source and are kept apart here.

Test system: SARS-CoV-2
Assay: microbe, parasite or virus in culture
Conditions: Severe acute respiratory syndrome coronavirus 2, Caco-2, 48 h; for inhibition at 10 µM: read-out: % Inh. (% Inhibition of SARS-CoV-2)

Structure (SMILES) | inhibition at 10 µM [%] | IC50 [µM] | IC50 (read-out: pIC50 (converted)) [µM]
CC1(C)CC[C@]2(C(=O)O)CC[C@]3(C)[C@H](C(=O)C=C4[C@@]5(C)C=C(C#N)C(=O)C(C)(C)[C@@H]5CC[C@]43C)[C@@H]2C1 [Bardoxolone] | 66 | – | –
COc1cc(CN2CCN(c3ccc(F)cc3)CC2)cc(OC)c1OC [1-(4-fluorophenyl)-4-(3,4,5-trimethoxybenzyl)piperazine] | 67.3 | – | –
c1ccc2c(c1)[I+]c1ccccc1-2 [diphenyleneiodonium] | 55.5 | – | –
COc1ccc(S(=O)(=O)N2CCC[C@H]2C(=O)Nc2cc(C)cc(C)c2)cc1 [ACT-462206] | 53.8 | – | –
C[C@@H]([C@@H](O)c1ccc(O)cc1)N1CCC(O)(c2ccccc2)CC1 [CP 101606] | 54.3 | – | –
CC(=O)CC(c1ccc([N+](=O)[O-])cc1)c1c(O)c2ccccc2oc1=O (stereo not drawn) [Acenocoumarin] | 64.2 | – | –
CN(C)CC[C@H](CSc1ccccc1)Nc1ccc(S(=O)(=O)NC(=O)c2ccc(N3CCN(Cc4ccccc4-c4ccc(Cl)cc4)CC3)cc2)cc1[N+](=O)[O-] [ABT-737] | 63.1 | – | –
CC(C)(O)CC(=O)NCCn1ccc2ncnc(Nc3ccc(Oc4cccc(C(F)(F)F)c4)c(Cl)c3)c21 [TAK-285] | 73 | – | –
Cc1[nH]cnc1-c1ccc(Cl)cc1 [lofemizole] | 56.3 | – | –
Clc1ccc(CCC(Cn2ccnc2)Sc2c(Cl)cccc2Cl)cc1 (stereo not drawn) [BUTOCONAZOLE] | 70.6 | – | –
CNC(=O)c1cc(Oc2ccc(NC(=O)Nc3cc(C(C)(C)C)nn3-c3ccc4ncccc4c3)c(F)c2)ccn1 [DCC-2036 (Rebastinib), Rebastinib] | 70 | – | –
Clc1ccc(COC(Cn2ccnc2)c2ccc(Cl)cc2Cl)cc1 (stereo not drawn) [ECONAZOLE NITRATE] | 87.3 | – | –
c1ccc(OCc2ccc(CCCN3CCOCC3)cc2)cc1 [Fomocain] | 61.1 | – | –
COc1ccc(NC(=O)c2ccc(-c3ccc(-c4noc(C)n4)cc3C)cc2)cc1N1CCN(C)CC1 [GR-127935] | 53.7 | – | –
CCc1cc2cc(OC)c(OC)cc2c(Cc2ccccc2)n1 [Moxaverine] | 68.7 | – | –
CNCCCOc1cc(F)c(-c2c(Cl)nc3ncnn3c2N[C@@H](C)C(F)(F)F)c(F)c1 [Cevipabulin] | 53.6 | – | –
Nc1ccc2cc3ccc(N)cc3nc2c1 [PROFLAVINE HEMISULFATE] | 95.8 | 26.7 | 26.9
CCCCNc1cc(C(=O)O)cc(S(N)(=O)=O)c1Oc1ccccc1 [BUMETANIDE] | 87.5 | – | –
C[N+](C)(C)CC(=O)O [BETAINE HYDROCHLORIDE] | 95.7 | – | –
COc1c(O[C@@H]2O[C@H](CO)[C@@H](O)[C@H](O)[C@H]2O)cc2c(c1OC)-c1ccc(SC)c(=O)cc1[C@@H](NC(C)=O)CC2 [thiocolchicoside] | 54.2 | – | –
CCc1nn(CCCN2CCN(c3cccc(Cl)c3)CC2)c(=O)n1CCOc1ccccc1 [NEFAZODONE HYDROCHLORIDE] | 71.7 | – | –
CC(O)COC[C@H]1O[C@@H]2O[C@H]3[C@H](O)[C@@H](O)[C@@H](O[C@H]4[C@H](O)[C@@H](O)[C@@H](O[C@H]5[C@H](O)[C@@H](O)[C@@H](O[C@H]6[C@H](O)[C@@H](O)[C@@H](O[C@H]7[C@H](O)[C@@H](O)[C@@H](O[C@H]8[C@H](O)[C@@H](O)[C@@H](O[C@H]1[C@H](O)[C@H]2O)O[C@@H]8COCC(C)O)O[C@@H]7COCC(C)O)O[C@@H]6COCC(C)O)O[C@@H]5COCC(C)O)O[C@@H]4COCC(C)O)O[C@@H]3COCC(C)O (stereo partly drawn) [hydroxypropyl-beta-cyclodextrin] | 56.5 | – | –
N#C/C(=C1/SCC(c2ccccc2Cl)S1)n1ccnc1 (stereo not drawn) [Lanoconazole] | 70.7 | – | –
O=C(NO)c1cnc(N2CCN(S(=O)(=O)c3ccc4ccccc4c3)CC2)nc1 [R306465] | 57.3 | – | –
C[S+]([O-])CCCCN=C=S (stereo not drawn) [sulforaphane] | 94.2 | – | –
NC(N)=NCc1cccc(I)c1 [iobenguane] | 86.9 | – | –
NCCC(=O)N[C@@H](Cc1cnc[nH]1)C(=O)O [Carnosine] | 94.3 | – | –
NC(=O)N/N=C/c1ccc([N+](=O)[O-])o1 [NITROFURAZONE] | 87.3 | – | –
